Read-outs that look alike come from different tables or passages of the source.
What was measured:
[1] = test system: endothelial progenitor cells (EPCs) in peripheral blood
Procedure: (§1) Peripheral blood mononuclear cells (PBMNCS) were isolated from 500 μl of peripheral blood obtained from each mouse. PBMNCs were cultured in EBM media (Clonetics, San Diego, Calif.) with 5% fetal bovine serum (FBS), antibiotics, and growth factors (EPC medium) on four-well glass slides coated with rat plasma vitronectin (Sigma) in 0.5% gelatin solution. Four days after culture, EPCs, recognized as attaching spindle-shaped cells, were assayed by co-staining with acetylated LDL (acLDL)-DiI (Biomedical Technologies, Stoughton, Mass.) and Bandeiraea simplicifolia (BS-1) lectin I (Vector Laboratories, Burlingame, Calif.), indicators of endothelial lineage, and conjugated with FITC (Sigma). EPCs were identified as double-positive cells under fluorescent microscopy. The number of double-positive cells per sample, measured in fifteen fields under 20× magnification, was counted in a blinded manner.

[2] = test system: BS lectin 1 and β-gal double-positive cells; conditions: one week after AMI; 400×
Procedure: Apex-sections from the Tie-2/LZ/BMT mice were embedded in OCT compound (Miles Scientific) and snap-frozen in liquid nitrogen for fluorescence microscopy immediately after sacrifice. Immunohistochemical staining was performed using antibodies against the rabbit anti-B-galactosidase IgG (CORTEX Biochem) and the murine-specific EC marker fluorescein griffonia simplicifolia lectin I (Vector Laboratories).
Sections of ischemic (FIGS. 12A-12F) and intact (FIGS. 13A-13F) myocardium were stained for both BS lectin 1 (green fluorescence) and β-galactosidase (red fluorescence).

[3] = test system: MMP-2; conditions: one week after MI; RT-PCR
Procedure: To clarify the mechanism of BM-EPC kinetics induced by AMD3100, RT-PCR was performed for MMP-9 mRNA expression on BM-mononuclear cells one week after MI was performed. RNA was extracted from mononuclear cells isolated from bone marrow using TRIzol reagent (Invitrogen) according to the manufacture's instruction. Reverse transcriptase-polymerase chain reaction (RT-PCR) of the MMP-9 and GAPDH genes was performed using 1 μg of total RNA. PCR was performed for 25 cycles for both MMP-9 and GAPDH; each cycle maintained 94° C. for 30 seconds and 64° C. for three minutes. Amplification was carried out in 20-μl reaction mixtures containing 0.4 U Taq polymerase.

[4] = test system: capillaries of left ventricular myocardium; conditions: two weeks after AMI
Procedure: (§2) The explanted hearts of sacrificed mice were sliced in a bread-loaf fashion into transverse sections from apex to base (base-, mid-, and apex-portions) and fixed with 4% paraformaldehyde. Tissues were embedded in paraffin and sectioned for elastic tissue/trichrome staining and immunohistochemistry using the murine-specific EC marker Bandeiraea simplicifolia lectin I (Isolectin B4) (Vector laboratories).
(§3) Capillary density was assessed by histological examination of five randomly selected fields of tissue sections from segments of the left ventricular myocardium served by the occluded LAD. Capillaries were recognized as tubular structures positive for isolectin B4. Elastic tissue/trichrome-stained tissues from the mice four weeks after MI were used to measure the average ratio of the external circumference of fibrosis area to LV area.

[5] = test system: left ventricle fibrosis; conditions: two weeks after AMI
Procedure: as §2, §3

[6] = test system: X-gal positive cells (bone-marrow derived endothelial cells) in left ventricle; conditions: for number of X-gal positive cells: infarct and border area, Tie2-LacZ/BMT mice
From the text: This Example describes the experimental design of the Tie2-LacZ/BMT mouse model. […] FVB/N background mice (n=30) were irradiated to kill their endogenous bone marrow. They were then given a bone marrow transplant (BMT) of 2×10^6 mononuclear cells (MNCs) derived from age-matched (4 weeks old) Tie2-LacZ mice (FVB/N-TgN[TIE2LacZ]182Sato, Jackson Lab). AMIs were induced in the mice (now called Tie2-LacZ/BMT mice) by LAD ligation four weeks after BMT, by which time the bone marrow of the recipient mice had been reconstituted. Right after AMI, the mice were each given a single subcutaneous injection of AMD-3100 (125 μg) or saline (control). Bone marrow cells were obtained using procedures described above. Bone marrow mononuclear cells were also isolated by density centrifugation. Tissue analysis was done at one or two weeks.
Tie-2/LZ/BMT mice were sacrificed at one and two weeks after MI. The explanted hearts were sliced in a bread-loaf fashion into transverse sections from apex to base (base-, mid-, and apex-portions). Mid-portions of the hearts were fixed in 4% paraformaldehyde for three hours at room temperature and incubated in X-gal solution overnight at 37° C. The target tissue samples were then placed in PBS [need to spell this out] and examined under a dissecting microscope for macroscopic identification of lacZ-expressing cells. Histological sections of the mid-portion heart tissue were counterstained with hematoxylin and eosin and assessed by light microscopy. The number of X-gal positive cells in six randomly chosen fields at 40× magnification were counted in a blinded manner.
Left ventricle sections of AMD-3100-treated and control Tie2-LacZ/BMT mice were analyzed one and two weeks after AMI. […] The quantitative analysis of X-gal positive cells was evaluated by histological examination of six randomly selected fields in the infarct and border area.

[7] = test system: mice after AMI
Procedure: (§4) Eight-week old male FVB mice were anesthetized with sodium pentobarbital (50 mg/kg IP). The animals were intubated orally with a 22G IV catheter and artificially ventilated with a respirator (Harvard Apparatus). A left intercostal thoracotomy was performed and the ribs were retracted with 5-0 polypropylene sutures. After the pericardium was opened, the left anterior descending (LAD) branch of the left coronary artery was ligated proximal to the bifurcation between the LAD and the diagonal branch using 8-0 polypropylene sutures and visualized with a dissecting microscope. Positive end-expiratory pressure was applied to fully inflate the lungs, and the chest was closed with 7-0 polypropylene sutures. After the closure of chest wall, mice randomly received either a single subcutaneous injection of 125 μg AMD3100 (AMD group) or saline (control group). After physiological assessment at one, two and four weeks after MI, a subgroup of the mice were euthanized by intravenous administration of a lethal dose of pentobarbital.
All values were expressed as mean±the standard error of the mean. Statistical significance was evaluated using Wilcoxon Rank Sum Test for comparisons between mice receiving AMD3100 and those receiving saline. Overall survival of all the mice was assessed by Kaplan-Meier analysis. Survival in individual experimental groups was also analyzed by Fisher's extract probability test. A p value of less than 0.05 was considered statistically significant.

[8] = test system: EPCs isolated from peripheral blood; conditions: one week after MI
Procedure: (§5) Fluorescence-activated cell sorting (FACS) was used to identify EPCs from mononuclear cells isolated both from peripheral blood and bone marrow. The viable mononuclear cell population was analyzed for the expression of Sca-1-FITC (Pharmingen) and Flk-1 (Santa Cruz) conjugated with the corresponding phycoerythrin-labeled secondary antibody (Sigma). Isotype-identical antibodies served as negative controls. Immunofluorescence-labeled cells were fixed with 2% paraformaldehyde and analyzed by quantitative flow cytometry using a FACStar flow cytometer (Becton Dickinson) and Cell Quest Software that counted 10,000 events per sample.

[9] = test system: EPCs in BM mononuclear cells; conditions: one week after MI
Procedure: as §5

[10] = test system: EPCs in peripheral blood
Procedure: as §1
To evaluate the effect of AMD-3100 on circulating EPC kinetics, EPC counts (cells/mm^2) were taken from peripheral blood one and two weeks after AMI. At each time point after the induction of MI, mononuclear cells were isolated from peripheral blood and total BM cells that had been obtained by flushing the tibias and femurs. EPCs were counted by culturing as described in Example 1, and stained with both acLDL-DiI and BS-1 lectin. Double positive cells were counted in 15 fields under objective 20× magnification per sample in a blinded manner.

[11] = test system: FVB mice after MI (LAD ligation)
Procedure: as §4
Transthoracic echocardiography (SONOS 5500, Hewlett Packard) was performed just before MI and one, two and four weeks after MI. Left ventricular diastolic (LVDd) and systolic (LVDs) dimensions and fractional shortening were measured at the mid-papillary muscle level. Hemodynamic measurements were obtained at two and four weeks after MI using a 1.0-French high-fidelity pressure catheter (Millar Instruments, Houston, Tex.) via the left carotid artery. LV systolic pressure and maximal positive (+dP/dt) and negative (−dP/dt) pressure development were recorded after stabilization of LV function and heart rate.

[12] = 1 week after MI, 125 μg s.c. after MI
[13] = 2 weeks after MI, 125 μg s.c. after MI
[14] = 2 weeks after MI, 125 μg s.c. after MI, listed as AMD
[15] = 4 weeks after MI, 125 μg s.c. after MI
[16] = 4 weeks after MI, 125 μg s.c. after MI, listed as AMD

## c1cc(CN2CCCNCCNCCCNCC2)ccc1CN1CCCNCCNCCCNCC1 [AMD-3100, 1,1′-[1,4-phenylene-bis(methylene)]-bis-1,4,8,11-tetraazacyclotetradecane]
[1]; 1 hour after single s.c. injection of 125 μg, FVB/N mice, peripheral blood
  maximal MNCs and EPCs (number): 613±89 cells/mm^2
[1]; after single s.c. injection of 125 μg
  time until MNC/EPC numbers returned to baseline: ≤ 24 h
[1]; single s.c. injection of 125 μg
  time of maximal MNCs and EPCs after drug administration: 1 h
[2]
  double-positive cells in a representative section: eight
  double-positive cells in another representative section: eight
  double-positive cells in tissue (merged fluorescence microscopy): marked increase
[3]
  expression of MMP-2 in BM mononuclear cells: not
[4]
  capillary density in border zone: 4005±189 /mm^2
[5]
  fibrosis area of left ventricle: 25±6%
[6]; 1 week after AMI
  number of X-gal positive cells: 3776±113 /mm2
[6]; 2 weeks after AMI
  number of X-gal positive cells: 1906±138 μmm2
[6]; one and two weeks after AMI
  X-gal staining of the left ventricle (macroscopic) vs controls: marked increase
[7]; 14 weeks after AMI (so in the source), FIG. 4A
  mice still living: 64%
[7]; another group of mice, four weeks after MI, FIG. 4B
  mice died: 42%
[7]; four weeks after MI, FIG. 4B
  survival rate vs mice receiving saline: higher
[8]
  EPCs (Sca-1/Flk-1 double positive) in peripheral blood by FACS: 11.3±1.4%
[9]
  EPCs (Sca-1/Flk-1 positive) in BM mononuclear cells by FACS: 1.9±0.1%
[10]; four weeks after AMI
  number of cultured EPCs: returned to basline
[10]; one week after AMI
  number of EPCs in peripheral blood: 868±210 /mm^2
[10]; two weeks after AMI
  number of EPCs in peripheral blood: 556±47 /mm^2
[11]; [12]
  FS (fractional shortening): 35 ± 2%
  HR (heart rate): 494 ± 24 bpm
  LVDd: 3.5 ± 0.1 mm
  LVDs: 2.2 ± 0.1 mm
[11]; [13]
  FS (fractional shortening): 34±1%
  HR (heart rate): 515 ± 16 bpm
  LV +dP/dt: 3383±104 mm Hg/s
  LV −dP/dt: 2213±113 mm Hg/s
  LVDd: 3.8±0.1 mm
  LVDs: 2.5±0.1 mm
  LVEDP: 1.6±0.4 mmHg
  LVSP: 71±2 mmHg
[11]; [14]
  FS (fractional shortening): 34±1%
  LV +dP/dt: 3475±168 mm Hg/s
  LV −dP/dt: 2842 ± 200 mm Hg/s
  LVDd: 3.8 ± 0.1 mm
  LVDs: 2.5 ± 0.1 mm
  LVEDP: 1.5±0.2 mmHg
  LVSP: 73 ± 3 mmHg
[11]; 2 weeks after MI, 125 μg s.c. after MI, listed as AMD3100
  LVDd: 3.8±0.1 mm
[11]; 3 wks after MI (as printed in text)
  LVDs: 2.5±0.2 mm
[11]; [15]
  HR (heart rate): 473 ± 26 bpm
  LV −dP/dt: 2213 ± 112 mm Hg/s
  LVDd: 4.0±0.1 mm
  LVDs: 2.6±0.2 mm
[11]; [16]
  FS (fractional shortening): 28±1%
  LV +dP/dt: 3383±104 mm Hg/s
  LVDd: 4.0 ± 0.1 mm
  LVDs: 2.9 ± 0.1 mm
  LVEDP: 1.6±0.4 mmHg
  LVSP: 71±2 mmHg
[11]; after MI, vs control group
  difference in heart rate between the two groups: no significant difference
[11]; before MI
  FS (fractional shortening): 52 ± 1%
  HR (heart rate): 510 ± 26 bpm
  LVDd: 2.8 ± 0.1 mm
  LVDs: 1.4 ± 0.1 mm
[11]; before MI and one week after MI, vs saline
  LVDd, LVDs, fractional shortening, and heart rate, difference between the groups: not significantly different
[11]; two weeks after MI, vs control
  difference in LVSP between the groups: no significant difference

Reference: patent US20060194776A1, “Compositions and methods for treating tissue ischemia” (priority 2003, published 2006)
